Source: patent publication EP3981864A1, “DETERGENT COMPOSITION” (priority 2020, dated 2022)

Assays:
[1] = target: T1, Arabidopsis thaliana αDOX (SEQ ID NO: 10), fatty acid alpha-dioxygenase, Q9C9U3, variant with N-terminal His-tag, MBP tag and TEV site SEQ ID NO: 267 (comparati (Arabidopsis thaliana, UniProt Q9C9U3)); assay: Alpha-dioxygenase activity assay (oxygen consumption, TON); assay type: biochemical; conditions: fatty acid 100 µM, enzyme 6 ppm, 50 mM HEPES pH 9.0, 37°C; initial rate of oxygen consumption / enzyme concentration
T1 construct: His-tag (N); MBP tag (N); TEV protease cleavage site (N); made in house; host or cells: Escherichia coli BL21 (DE3), modified pET28a
T1 sequence (Q9C9U3 21-631): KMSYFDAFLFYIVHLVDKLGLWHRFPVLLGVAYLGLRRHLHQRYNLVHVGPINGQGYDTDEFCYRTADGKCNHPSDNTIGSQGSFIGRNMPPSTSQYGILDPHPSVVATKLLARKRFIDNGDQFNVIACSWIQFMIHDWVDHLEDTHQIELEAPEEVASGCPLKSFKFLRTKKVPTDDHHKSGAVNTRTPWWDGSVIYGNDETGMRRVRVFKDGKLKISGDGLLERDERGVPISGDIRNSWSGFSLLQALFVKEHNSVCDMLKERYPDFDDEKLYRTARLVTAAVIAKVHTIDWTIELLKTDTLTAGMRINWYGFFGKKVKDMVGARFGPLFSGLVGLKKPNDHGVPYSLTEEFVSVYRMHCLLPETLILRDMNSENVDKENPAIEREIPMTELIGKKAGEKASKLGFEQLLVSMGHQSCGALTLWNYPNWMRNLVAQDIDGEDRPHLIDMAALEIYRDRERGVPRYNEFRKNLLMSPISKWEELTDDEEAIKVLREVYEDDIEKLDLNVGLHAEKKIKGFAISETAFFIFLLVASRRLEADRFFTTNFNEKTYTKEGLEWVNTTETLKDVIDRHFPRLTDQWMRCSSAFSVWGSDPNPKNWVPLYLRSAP
Source text: Arabidopsis thaliana αDOX (SEQ ID NO: 10) is a fatty acid alpha-dioxygenase that converts fatty acids into the corresponding 2-hydroperoxy fatty acids and is included as a comparative example of the present invention. A codon optimized gene (SEQ ID NO: 266) encoding for an alpha-dioxygenase variant was designed and synthesized by Genscript. After synthesis, the gene was cloned into a modified version of pET28a, such as the final plasmid encoded for a αDOX variant including an N-terminal amino acid sequence containing a His-tag, an MBP tag, and a TEV protease cleavage site (SEQ ID NO: 267). For heterologous expression, Escherichia coli BL21 (DE3) cells were transformed with the recombinant plasmid and a single colony was inoculated into LB medium containing kanamycin (50 mg/L). A pre-starter culture was then inoculated into flasks containing TB Media supplemented with kanamycin (50 mg/L) and incubated at 37 °C. At an OD600nm about 3.8, IPTG (final concentration 0.1 mM) and 5-aminolevulinic acid (final concentration 0.25 mM) were added to the culture and further incubated at 16 °C for 16 h. Cells were harvested by centrifugation and the pellet was lysed. After centrifugation, the supernatant was collected, and the protein was purified by one-step purification using Ni-NTA affinity chromatography and standard protocols known in the art. The protein was stored in 1×PBS buffer containing 10% Glycerol and at pH 7.4. The purified enzyme was stored at -80 °C until use.
Reactions with alpha-dioxygenases were performed as follows. An aliquot of fatty acid in ethanol (final concentration 100 µM) was resuspended in buffer (50 mM HEPES at pH 9.0) in a scintillation vial. The reaction was started by addition of enzyme (final concentration 6 ppm). The reaction was incubated for up to 10 minutes at 37°C with 200 rpm agitation and the conversion was monitored using an oxygen sensor. The TON (in s-1) were calculated as the ratio between the initial rate of oxygen consumption (in µM/s) and the concentration of enzyme (in µM). […]

[2] = test system: Citrus sinensis αDOX (SEQ ID NO: 11), fatty acid alpha-dioxygenase, A0A067FHE4, N-terminal His-tag variant SEQ ID NO: 269 (comparative); assay: as above; assay type: biochemical; conditions: fatty acid 100 µM, enzyme 6 ppm, 50 mM HEPES pH 9.0, 37°C; initial rate of oxygen consumption / enzyme concentration
Source text: Citrus sinensis αDOX (SEQ ID NO: 11) is a fatty acid alpha-dioxygenase that converts fatty acids into the corresponding 2-hydroperoxy fatty acids and is included as a comparative example of the present invention. A codon optimized gene (SEQ ID NO: 268) encoding for an alpha-dioxygenase variant (SEQ ID NO: 269), including an N-terminal amino acid sequence containing a His-tag was designed and synthesized by Genscript. After gene synthesis, the protein was expressed and purified. In brief, the complete synthetic gene sequence was subcloned into a pET30a vector using the NdeI/HindIII cloning sites. For heterologous expression, Escherichia coli BL21 (DE3) cells were transformed with the recombinant plasmid and a single colony was inoculated into LB medium containing kanamycin (50 mg/L). A pre-starter culture was then inoculated into flasks containing Magic Media (Thermo Fisher, Catalog # K6803) supplemented with kanamycin (50 mg/L) and incubated at 16 °C for 72 h. At an OD600nm = 0.5 - 1.0, 5-aminolevulinic acid (final concentration 0.5 mM) was added. Cells were harvested by centrifugation at 5000 rpm and 4°C and the pellet was lysed using a bacterial cell lysis buffer (B-PER - Themo Fisher, Waltham, MA). After centrifugation, the supernatant was collected, and the protein was purified by one-step purification using HisPur™ Ni-NTA Spin Columns (Thermo Scientific, Catalog # 88226) and standard protocols known in the art. The protein was concentrated using a 10 kDa MW cutoff Amicon Ultra centrifugal filter unit (Millipore Sigma, Catalog# UFC901024), followed by desalting using a disposable PD-10 desalting column (GE Healthcare Life Sciences, Catalog# 17085101) and a buffer containing 50 mM Tris-HCl, 500 mM NaCl, and 10% Glycerol at pH 8.0. […]
Reactions with alpha-dioxygenases were performed as follows. […] The reaction was incubated for up to 10 minutes at 37°C with 200 rpm agitation and the conversion was monitored using an oxygen sensor. The TON (in s-1) were calculated as the ratio between the initial rate of oxygen consumption (in µM/s) and the concentration of enzyme (in µM). […]

CCCCCCCC/C=C\CCCCCCCC(=O)O [Oleic Acid]
Oleic Acid, TON [1]: 0.13 s⁻¹
Oleic Acid, TON [2]: 0.00 s⁻¹

CCCCCCCCCCCCCCCC(=O)O [Palmitic Acid]
Palmitic Acid, TON [1]: 0.54 s⁻¹
Palmitic Acid, TON [2]: 0.29 s⁻¹

CCCCCCCCCCCCCCCCCC(=O)O [Stearic Acid]
Stearic Acid, TON [1]: 0.13 s⁻¹
Stearic Acid, TON [2]: 0.00 s⁻¹
